Data: paper PMC7519074, “Polar functional group-containing glycolipid CD1d ligands modulate cytokine-biasing responses and prevent experimental colitis” (Scientific Reports, 2020)
≈ marks a conversion by molar mass, not a printed value. Each block holds one compound with its values, some of them ahead of it.

Legend:
[1] = Metabolic stability, rat liver microsome; format: in vitro ADME; conditions: for half-life: liver microsomes, read-out: metabolic stability (liver microsome, T1/2) rat
[2] = target: T1, mCD1d-Fc fusion protein (Mus musculus, UniProt P11609); test: Antigen presenting cell (APC)-free assay for lipid binding to mCD1d-Fc; IL-2 release by 2E10 NKT hybridoma cells; format: cell-based; set-up: unit not given here; conditions: mean ± SEM; for IL-2 production (exact values of IL-2): ligand 10 nM, Fig. 3a, b; for IL-2 production: ligand 100 nM, Fig. 3c, d
T1 construct: Ig (mouse immunoglobulin fusion partner); purchased BD Biosciences
T1 sequence (P11609 22-305 limits assumed): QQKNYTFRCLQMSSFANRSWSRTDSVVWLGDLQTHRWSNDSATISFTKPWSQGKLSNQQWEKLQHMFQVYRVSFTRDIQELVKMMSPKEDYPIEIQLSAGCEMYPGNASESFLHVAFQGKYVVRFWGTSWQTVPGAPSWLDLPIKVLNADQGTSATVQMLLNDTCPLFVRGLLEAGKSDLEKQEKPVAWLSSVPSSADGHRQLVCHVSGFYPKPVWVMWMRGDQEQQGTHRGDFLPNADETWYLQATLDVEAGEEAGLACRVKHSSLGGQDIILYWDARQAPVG
T1 sequence (P01887 21-119 partner): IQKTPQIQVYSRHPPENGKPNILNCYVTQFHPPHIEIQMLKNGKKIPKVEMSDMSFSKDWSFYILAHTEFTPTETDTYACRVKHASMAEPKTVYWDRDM
Experimental: NKT hybridoma 2E10 cells were cultured in RPMI-1640 (NACALAI TESQUE, INC) supplemented with 10% fetal bovine serum (FBS; Biowest), and 1% penicillin–streptomycin (Gibco).
For this assay, 96-well microplates (Bio-one 96-well cell culture plate, Greiner) were coated with mouse CD1d:Ig Fusion protein (BD Biosciences) (0.25 μg/well) in PBS at 37 °C for 24 h. […] After washing, 2E10 NKT hybridoma cells (2.5 × 10^5 cells/well) were added and cultured at 37 °C for 48 h. IL-2 release was measured with an ELISA kit (Affymetrix).

[3] = target: T1, mCD1d-Fc fusion protein; set-up: method as in PMID 27648599; conditions: previously reported; cited from earlier work
[4] = Water solubility; format: physicochemical
[5] = system: mouse splenocytes; test: Cytokine secretion assay using mouse splenocyte; format: cell-based, C57BL/6 mice; set-up: IFN-γ production / IL-4 production / IL-17A production: unit not given here; conditions: for IFN-γ production / IL-4 production / IL-17A production: 48 h; for Relative ratio IL-4/IFN-γ of cytokine production compared to α-GalCer / Relative ratio IL-17A/IFN-γ of cytokine production compared to α-GalCer: 1 nM; for Relative ratio IL-4/IFN-γ of cytokine production compared to α-GalCer: Fig. 5a; for Relative ratio IL-17A/IFN-γ of cytokine production compared to α-GalCer: Fig. 5b; for cytokine polarization in words: from relative ratios, Fig. 5
Experimental: Spleen cell suspensions (from C57BL/6 mice) were prepared in complete medium (RPMI 1,640 media supplemented with 10% FBS and 1% penicillin–streptomycin) and seeded into 96-well plates (6.0 × 10^5 cells/well). Lipid ligands were added, and the mixture were incubated at 37 °C for 48 h. IFN-γ, IL-4 and IL-17A release were measured with an ELISA kit (Affymetrix).

[6] = Metabolic stability, human liver microsome; format: in vitro ADME; conditions: for half-life: liver microsomes, read-out: metabolic stability (liver microsome, T1/2) human
[7] = Table S1, dash = below the detection limit (< 5 μM) according to b25

metabolic stability in words [1]: good metabolic stability
half-life [1]: 47 min
IL-2 production (exact values of IL-2) [2]: 177 ± 27
IL-2 production [2]: 2,502 ± 114
solubility [4, 7]: < 5 µM
metabolic stability in words [6]: good metabolic stability
half-life [6]: 60 min
SMILES: CCCCCCCCCCCCCC[C@@H](O)[C@@H](O)[C@H](CO[C@H]1O[C@H](CO)[C@H](O)[C@H](O)[C@H]1O)NC(=O)CCCCCCCCCCCNC(=O)CCCCCCCCCCCC [1a]
cytokine production / agonistic activity relative to α-GalCer, in words [3]: higher levels of cytokine production relative to that caused by α-GalCer
IFN-γ production ([5]; 1 nM ligand, Fig. 4a): 16,907 ± 3,679
IL-4 production ([5]; 1 nM ligand, Fig. 4b): 247 ± 19
IFN-γ production ([5]; 1 nM ligand, Fig. S2a): 9,152 ± 373
IL-4 production ([5]; 1 nM ligand, Fig. S2b): 232 ± 41
IL-17A production ([5]; 1 nM ligand, Fig. S2c): 1,276 ± 60
Relative ratio IL-4/IFN-γ of cytokine production compared to α-GalCer [5]: 1.27 ± 0.23
Relative ratio IL-17A/IFN-γ of cytokine production compared to α-GalCer [5]: 0.76 ± 0.06
cytokine polarization in words [5]: relatively less selective cytokine responses

metabolic stability in words [1]: good metabolic stability
half-life [1]: > 200 min
IL-2 production (exact values of IL-2) [2]: 662 ± 46
solubility ([4]; detection limit 5 μM): 5 µM (≈ 3.95 µg/mL)
metabolic stability in words [6]: good metabolic stability
half-life [6]: > 200 min
SMILES: CCCCCCCCCCCCCC[C@@H](O)[C@@H](O)[C@H](CO[C@H]1O[C@H](CO)[C@H](O)[C@H](O)[C@H]1O)NC(=O)CCCCCCCCCCCNC(=O)CCCCCC [1b]
cytokine production / agonistic activity relative to α-GalCer, in words [3]: higher levels of cytokine production relative to that caused by α-GalCer
IFN-γ production ([5]; 1 nM ligand, Fig. S2a): 822 ± 11
IL-17A production ([5]; 1 nM ligand, Fig. S2c): 976 ± 207
Relative ratio IL-4/IFN-γ of cytokine production compared to α-GalCer [5]: 5.04 ± 0.90
Relative ratio IL-17A/IFN-γ of cytokine production compared to α-GalCer [5]: 6.43 ± 1.27
cytokine polarization in words [5]: IL-4- and IL-17A-biasing properties

metabolic stability in words [1]: metabolized more rapidly
half-life [1]: 23 min
IL-2 production (exact values of IL-2) [2]: 749 ± 92
solubility [4, 7]: < 5 µM
metabolic stability in words [6]: metabolized more rapidly
half-life [6]: 15 min
SMILES: CCCCCCCCCCCCCC[C@@H](O)[C@@H](O)[C@H](CO[C@H]1O[C@H](CO)[C@H](O)[C@H](O)[C@H]1O)NC(=O)CCCCCCCCCCCN(C)C(=O)CCCCCCCCCCCC [4a]
IFN-γ production ([5]; 1 nM ligand, Fig. 4a): 39,159 ± 4,960
IL-4 production ([5]; 1 nM ligand, Fig. 4b): 599 ± 13

IL-2 production (exact values of IL-2) [2]: 546 ± 87
SMILES: CCCCCCCCCCCCCC[C@@H](O)[C@@H](O)[C@H](CO[C@H]1O[C@H](CO)[C@H](O)[C@H](O)[C@H]1O)NC(=O)CCCCCCCCCCCN(C)C(=O)CCCCCC [4b]
IL-4 production ([5]; 10 nM ligand, Fig. 4e): 743 ± 11
IL-17A production ([5]; 10 nM ligand, Fig. 4f): 2095 ± 190
IFN-γ production ([5]; 10 nM ligand, Fig. 4d): 17,753 ± 542

IL-2 production (exact values of IL-2) [2]: 85 ± 26
SMILES: CCCCCCCCCCCCCC[C@@H](O)[C@@H](O)[C@H](CO[C@H]1O[C@H](CO)[C@H](O)[C@H](O)[C@H]1O)NC(=O)CCCCCCCCCCCNC(=O)NCCCCCCCCCCC [5a]

IL-2 production (exact values of IL-2) [2]: 376 ± 92
SMILES: CCCCCCCCCCCCCC[C@@H](O)[C@@H](O)[C@H](CO[C@H]1O[C@H](CO)[C@H](O)[C@H](O)[C@H]1O)NC(=O)CCCCCCCCCCCNC(=O)NCCCCC [5b]
IL-4 production ([5]; 10 nM ligand, Fig. 4e): 723 ± 73
IL-17A production ([5]; 10 nM ligand, Fig. 4f): 1774 ± 278
IFN-γ production ([5]; 10 nM ligand, Fig. 4d): 10,799 ± 950

metabolic stability in words [1]: good metabolic stability
half-life [1]: > 200 min
IL-2 production (exact values of IL-2) [2]: 323 ± 41
solubility [4, 7]: < 5 µM
metabolic stability in words [6]: good metabolic stability
half-life [6]: > 200 min
SMILES: CCCCCCCCCCCCCC[C@@H](O)[C@@H](O)[C@H](CO[C@H]1O[C@H](CO)[C@H](O)[C@H](O)[C@H]1O)NC(=O)CCCCCCCCCCCNCCCCCCCCCCCCC [6a]
IFN-γ production ([5]; 1 nM ligand, Fig. 4a): 8,515 ± 1,016
IL-4 production ([5]; 1 nM ligand, Fig. 4b): 286 ± 12

IL-2 production (exact values of IL-2) [2]: 74 ± 26
SMILES: CCCCCCCCCCCCCC[C@@H](O)[C@@H](O)[C@H](CO[C@H]1O[C@H](CO)[C@H](O)[C@H](O)[C@H]1O)NC(=O)CCCCCCCCCCCNCCCCCCC [6b]
Relative ratio IL-4/IFN-γ of cytokine production compared to α-GalCer [5]: 18.3 ± 6.8
Relative ratio IL-17A/IFN-γ of cytokine production compared to α-GalCer [5]: 66.7 ± 27.4
IL-4 production ([5]; 10 nM ligand, Fig. 4e): 513 ± 11
IL-17A production ([5]; 10 nM ligand, Fig. 4f): 990 ± 101
IFN-γ production ([5]; 10 nM ligand, Fig. 4d): 3,764 ± 450
cytokine polarization in words [5]: IL-4- and IL-17A-biasing properties

IL-2 production (exact values of IL-2) [2]: 424 ± 32
SMILES: CCCCCCCCCCCCCC[C@@H](O)[C@@H](O)[C@H](CO[C@H]1O[C@H](CO)[C@H](O)[C@H](O)[C@H]1O)NC(=O)CCCCCCCCCCCCC(=O)CCCCCCCCCCCC [7a]

IL-2 production (exact values of IL-2) [2]: 600 ± 20
SMILES: CCCCCCCCCCCCCC[C@@H](O)[C@@H](O)[C@H](CO[C@H]1O[C@H](CO)[C@H](O)[C@H](O)[C@H]1O)NC(=O)CCCCCCCCCCCCC(=O)CCCCCC [7b]
Relative ratio IL-4/IFN-γ of cytokine production compared to α-GalCer [5]: 12.7 ± 4.0
Relative ratio IL-17A/IFN-γ of cytokine production compared to α-GalCer [5]: 48.6 ± 15.6
IL-4 production ([5]; 10 nM ligand, Fig. 4e): 448 ± 40
IL-17A production ([5]; 10 nM ligand, Fig. 4f): 656 ± 69
IFN-γ production ([5]; 10 nM ligand, Fig. 4d): 4,276 ± 261
cytokine polarization in words [5]: IL-4- and IL-17A-biasing properties

IL-2 production [2]: 1626 ± 371
SMILES: CCCCCCCCCCCC/C=C/CCCCCCCCCCCC(=O)N[C@@H](CO[C@H]1O[C@H](CO)[C@H](O)[C@H](O)[C@H]1O)[C@H](O)[C@H](O)CCCCCCCCCCCCCC [8a]

IL-2 production [2]: 334 ± 19
SMILES: CCCCCC/C=C/CCCCCCCCCCCC(=O)N[C@@H](CO[C@H]1O[C@H](CO)[C@H](O)[C@H](O)[C@H]1O)[C@H](O)[C@H](O)CCCCCCCCCCCCCC [8b]

IL-2 production [2]: 1556 ± 91
SMILES: CCCCCCCCCCCC/C=C\CCCCCCCCCCCC(=O)N[C@@H](CO[C@H]1O[C@H](CO)[C@H](O)[C@H](O)[C@H]1O)[C@H](O)[C@H](O)CCCCCCCCCCCCCC [9a]

IL-2 production [2]: 925 ± 57
SMILES: CCCCCC/C=C\CCCCCCCCCCCC(=O)N[C@@H](CO[C@H]1O[C@H](CO)[C@H](O)[C@H](O)[C@H]1O)[C@H](O)[C@H](O)CCCCCCCCCCCCCC [9b]

SMILES: CCCCCCCCCCCCCCCCCCCC(=O)N[C@@H](CO[C@H]1O[C@H](CO)[C@H](O)[C@H](O)[C@H]1O)[C@H](O)[C@H](O)CCCCCCCCCCCCCC [C20:0-α-GalCer, reference compound]
IL-4 production ([5]; 10 nM ligand, Fig. 4e): 85 ± 52
IL-17A production ([5]; 10 nM ligand, Fig. 4f): 696 ± 38
IFN-γ production ([5]; 10 nM ligand, Fig. 4d): 1,353 ± 731
